This note sets out measurements from ChEMBL document CHEMBL4325894, “An update on sphingosine-1-phosphate receptor 1 modulators” (Bioorg Med Chem Lett, 2018).

In series [1] the target is T1, Sphingosine 1-phosphate receptor 1 (Homo sapiens, UniProt P21453). The experiment in a line: Activation of human recombinant S1P1 expressed in CHO cell membranes after 120 mins by GTP-gamma-35S-binding assay.
Series [2] concerns Homo sapiens. As to the kind of experiment: Immunosuppressive activity in human assessed as decrease in peripheral blood lymphocyte count at 30 mg/kg, po bid relative to control. More on the design: scale not given: the % may be the effect or the level left. It counts as functional.
The nature of series [3]: Half life in human. The format is ADME.
The nature of series [4]: Half life in human at 0.5 mg, po administered as single dose measured on day 14 by LC-MS/MS analysis. It counts as ADME, organism-based. Conditions: in vivo.
In series [5] the test system is Mus musculus. The experiment in a line: Immunosuppressive activity in ip dosed C57BL6 mouse assessed as decrease in CD4+ T lymphocyte count after 5 hrs by FACS analysis. It counts as functional.
The subject of series [6] is Mus musculus. As to the kind of experiment: Immunosuppressive activity in C57BL6 mouse assessed as decrease in CD8+ T lymphocyte count at 10 mg/kg, ip after 5 hrs by FACS analysis relative to control. It counts as functional. More on the design: scale not given: the % may be the effect or the level left. For orientation: Flow cytometry measures light scatter and fluorescence of single cells or particles in a stream.

In series [7] the test system is Mus musculus. The experiment in a line: Immunosuppressive activity in C57BL6 mouse assessed as decrease in CD4+ T lymphocyte count at 10 mg/kg, ip after 5 hrs by FACS analysis relative to control. It counts as functional. On the set-up: scale not given: the % may be the effect or the level left.
The test system of series [8] is Mus musculus. The experiment in a line: Immunosuppressive activity in ip dosed C57BL6 mouse assessed as decrease in CD8+ T lymphocyte count after 5 hrs by FACS analysis. It counts as functional.
Series [9] is filed under the species Homo sapiens. As to the kind of experiment: Selectivity for S1P1 (unknown origin) over S1P5 (unknown origin).
The subject of series [10] is Mus musculus. The experiment in a line: Immunosuppressive activity in C57BL6 mouse assessed as decrease in B220+ B lymphocyte count at 10 mg/kg, ip after 5 hrs by FACS analysis relative to control. More on the design: scale not given: the % may be the effect or the level left. It counts as functional.
Series [11] concerns Mus musculus. As to the kind of experiment: Immunosuppressive activity in ip dosed C57BL6 mouse assessed as decrease in B220+ B lymphocyte count after 5 hrs by FACS analysis. The format is functional.
The target of series [12] is T1, Sphingosine 1-phosphate receptor 1. As to the kind of experiment: Modulation of S1P1 receptor internalization in HCtAEC assessed as S1P1 expression at 100 nM after 1 hr by FACS analysis relative to control.
Series [13] relates to Homo sapiens. The experiment in a line: Immunosuppressive activity in po dosed human assessed as decrease in peripheral blood lymphocyte count measured after 21 days of continuous treatment. The format is functional. The following applies: 504 h.
The target in series [14] is T1, Sphingosine 1-phosphate receptor 1. The experiment in a line: Modulation of S1P1 receptor internalization in HCtAEC assessed as S1P1 expression at 1000 nM after 1 hr by FACS analysis relative to control.
Series [15] concerns Homo sapiens. As to the kind of experiment: Immunosuppressive activity in po dosed human assessed as decrease in peripheral blood lymphocyte count measured after 24 hrs. It counts as functional.
In series [16] the test system is Homo sapiens. As to the kind of experiment: In vivo modulatory activity at S1P1 receptor in SPMS patient assessed as reduction in newly enlarge T2 lesion at 1.25 to 2 mg, po administered as daily dose relative to control. The format is functional. More on the design: scale not given: the % may be the effect or the level left.
Series [17] can be described thus: Half life in human plasma. It counts as ADME, cell-free.
Series [18] has as its system Homo sapiens. As to the kind of experiment: Decrease in CD4+ T lymphocytes in human at 10 mg dosed daily for 28 days measured within 4 to 6 hrs post dose relative to control. It counts as functional. More on the design: scale not given: the % may be the effect or the level left.
Series [19] relates to Homo sapiens. As to the kind of experiment: Decrease in B lymphocytes in human at 10 mg dosed daily for 28 days measured within 4 to 6 hrs post dose relative to control. The format is functional. More on the design: scale not given: the % may be the effect or the level left.
Series [20] has as its system Homo sapiens. The experiment in a line: Decrease in naive T cells in human at 10 mg dosed daily for 28 days measured within 4 to 6 hrs post dose relative to control. The format is functional. More on the design: scale not given: the % may be the effect or the level left.
Series [21] deals with Homo sapiens. The experiment in a line: Immunosuppressive activity in RRMS patient assessed as decrease in peripheral blood lymphocytes at 20 to 40 mg, po administered as daily dose measured after 8 days relative to control. More on the design: scale not given: the % may be the effect or the level left.
Series [22] relates to IEC-6. As to the kind of experiment: Inhibition of apoptosis in rat IEC-6 cells assessed as decrease in CPT-induced DNA fragmentation relative to control. It counts as functional.
The subject of series [23] is IEC-6. The experiment in a line: Inhibition of apoptosis in rat IEC-6 cells assessed as decrease in CPT-induced DNA fragmentation. It counts as functional, cell-based.
Series [24] has as its system Homo sapiens. As to the kind of experiment: Immunosuppressive activity in human assessed as decrease in peripheral blood lymphocyte count at 0.1 mg/kg, po qd relative to control. It counts as functional. On the set-up: scale not given: the % may be the effect or the level left.
For series [25], the species on record is Homo sapiens. The experiment in a line: Immunosuppressive activity in human assessed as decrease in peripheral blood lymphocytes at 1 mg measured over 2 days relative to control. On the set-up: scale not given: the % may be the effect or the level left. The format is functional.

Molecules are shown by their SMILES. A value given as a limit tells only on which side of the number the result lay.

T1 sequence (P21453 whole entry): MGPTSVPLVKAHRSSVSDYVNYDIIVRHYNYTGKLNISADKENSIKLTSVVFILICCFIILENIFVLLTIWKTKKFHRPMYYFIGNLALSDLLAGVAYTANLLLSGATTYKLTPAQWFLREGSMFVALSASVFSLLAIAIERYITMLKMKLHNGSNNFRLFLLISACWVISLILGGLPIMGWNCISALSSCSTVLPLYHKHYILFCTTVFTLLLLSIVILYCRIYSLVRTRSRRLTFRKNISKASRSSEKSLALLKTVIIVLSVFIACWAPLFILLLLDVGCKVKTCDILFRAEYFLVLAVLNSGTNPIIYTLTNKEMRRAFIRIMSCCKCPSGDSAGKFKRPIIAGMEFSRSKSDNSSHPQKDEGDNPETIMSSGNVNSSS

On to `O=C(O)CCNCc1ccc2sc(-c3ccc(-c4ccccc4)c(C(F)(F)F)c3)cc2c1`, for which, in [1], the EC50 (in general, the concentration giving half of the maximal effect) was 1.2 nM.
For `Cc1cc([C@@H](C)Nc2cccc(-c3cc(C)c(C(=O)N[C@@H](C)C(=O)O)c(C)c3)c2)ccc1Cl`, in the series on Homo sapiens [2], the Activity is given as 75 - 85%.
With `CC(C)Oc1ccc(-c2nc(-c3cccc4c3CC[C@@H]4NCCO)no2)cc1C#N` [OZANIMOD], the half-life (usually the time in which the quantity being followed falls by half) in [3] is 19 h.
`CCCc1ccc(COc2ccc3c(c2)CCC(CN2CC(C(=O)O)C2)=C3C)c(OC)c1` displayed a half-life in series [4] of 81.9 to 89 h.
`CCOc1ccc(-c2nc(-c3cccc4c3CCC4NCCO)no2)cc1OCC` (centres undefined): the ED50 (usually the dose at which the effect has come halfway, by size or by number of responders) worked out at 0.5 mg/kg with Mus musculus [5], 2 mg/kg in the series on Mus musculus [8] and 1 mg/kg with Mus musculus [11]. In addition, the Activity in the series with Mus musculus [6] is 84%; in the series on Mus musculus [7], 83%; in the series with Mus musculus [10], 63%. This molecule displayed a Selectivity Index in the series filed under Homo sapiens [9] of 10000.
Take `C[C@H](Oc1ccc(-c2nc(-c3ccc4[nH]cnc4c3)no2)cc1C(F)(F)F)C(F)(F)F` [ASP-4058]: the values for the Activity in [12] and in series [14] were 86% and 23%, respectively. Moreover, the values for the ED50 in the series on Homo sapiens [13] and in the series on Homo sapiens [15] were 0.023 mg/kg and 0.1 mg/kg, respectively.
In the case of `CCc1cc(/C(C)=N/OCc2ccc(C3CCCCC3)c(C(F)(F)F)c2)ccc1CN1CC(C(=O)O)C1` [SIPONIMOD], the Activity result is “<=80%” in the series with Homo sapiens [16], 88% in the series on Homo sapiens [18], 88% in the series on Homo sapiens [19] and 88% in the series on Homo sapiens [20]. In series [17], this molecule displayed a half-life of 56.4 to 216 h.
Regarding `CCC/N=C1/S/C(=C\c2ccc(OC[C@@H](O)CO)c(Cl)c2)C(=O)N1c1ccccc1C`, the Activity in the series with Homo sapiens [21] was 62%.
With `CCCCCCCCc1ccc(CC[C@](N)(/C=C/P(=O)(O)O)CO)cc1`, the “inhibition (INH)” value in the series on IEC-6 [22] is reported as 21%.
Take `CCCCCCCCc1ccc(CC[C@@](N)(CO)CCP(=O)(O)O)cc1`: the EC50 in the series with IEC-6 [23] was found to be 75 nM. Moreover, the “inhibition (INH)” value in the series with IEC-6 [22] came to 50%.
Regarding `CCCCCCCCc1ccc(CCC(N)(CO)CO)cc1` [FINGOLIMOD], the Activity with Homo sapiens [24] is given as 80 - 86%; in the series listed under Homo sapiens [25], 38%. Further, the ED50 is 0.02 mg/kg in the series on Homo sapiens [13] and 0.041 mg/kg in the series on Homo sapiens [15]. In [3], this molecule showed a half-life of 168 h.
